Measurements: US20250101026A1, “Functionalized Allopurinol Derivatives for Treatment of Alzheimer’s Disease” (BOARD OF REGENTS OF THE UNIVERSITY OF NEBRASKA, priority 2022, published 2025)
“And” between values parts separate entries of the source, which are not always exact repeats. Identical values can stand only once. “Also recorded” adds a separate entry of the source.

Key:
SH-SY5Y cells [1] = assay: Mitochondrial Stress Test in Aβ-treated SH-SY5Y cells (extracellular flux analyzer); format: cell-based, human; details: for proton leak, ATP production and maximal respiration: restoration of mitochondrial function lost by Aβ: then 25 μM Aβ
Protocol: Mitochondrial Stress Test. […] After 48 hours, media was replaced with assay medium consisting of XF Base Medium supplemented with 10 mM glucose, 10 mM pyruvic acid, and 1 mM L-glutamine. Subsequently, the analysis of mitochondrial oxygen consumption rate (OCR) was performed in a flux analyzer. The OCR values were obtained both during baseline (prior to addition of any Mito Stress Test substances), and after the addition of […], 2 μM FCCP and 0.5 μM rotenone+0.5 μM antimycin A, respectively. Prior to analysis, data were corrected by withdrawing non-mitochondrial respiration (measured after the injection of rotenone and antimycin A) from all measured OCR values. After the experiment, cells were lysed using RIPA buffer and protease inhibitor cocktail, then proteins were quantified via BCA assay. Results were normalized to protein concentration of each well to its OCR value.

SH-SY5Y cells [2] = assay: Aβ-induced toxicity in SH-SY5Y cells, MTS assay; format: cell-based, human; details: pretreated 24 hrs, then 25 μM Aβ 48 hrs
Protocol: (§1) Cell Culture. The cell line SH-SY5Y was cultured in DMEM/F12 media supplemented with 10% fetal bovine serum, 1% penicillin-streptomycin and maintained as monolayer cultures in a humidified atmosphere containing 5% CO2 at 37° C.^42 All cell lines were authenticated via short tandem repeat analysis and tested for mycoplasma using the a commercial mycoplasma detection kit as per the manufacturer's instructions, showing no contamination. Where indicated, cells were also cultured in DMEM/low glucose media. All compounds were diluted to 20 mM solution in DMSO and were serially diluted in cell culture media for cell treatments to a final concentration range of 0.01 to 100 μM, maintaining the final DMSO concentration at less than 1%. Positive control compound HupA was serially diluted in a similar fashion as the synthesized compounds.
(§2) Amyloid Preparation. The peptide Aβ1-42, referred to as “Aβ”, was obtained from a commercial source. The oligomers of Aβ were prepared using an established method,^43 Aβ peptide was resuspended in 0.5 mM NaOH at a concentration of […] and stored at −80° C. For use in cell cultures, the stock solution was incubated at 37° C. for 5-7 days. Before use, the peptide was diluted to 25 μM in DMEM/low glucose media.
(§3) Cell Viability Assays. The SH-SY5Y cells were plated at a density of 50,000 cells/well in 96-well plates and allowed to adapt overnight in a humidified atmosphere containing 5% CO2 at 37° C. The cells were pretreated (24 hours) with the test compound and exchanged to a serum-free DMEM/low glucose media, prior to incubation with 25 μM of Aβ. Cell viability was measured after 48 hours using commercial MTS assay or lactate dehydrogenase (LDH) cytotoxicity assay.
Employing human neuroblastoma SH-SY5Y ‘neuron-like’ cells, known to express ABAD,^20 experimental conditions are described herein that result in reproducible loss of 65% cell viability upon treatment with 25 μM Aβ after 48-hour incubation (FIG. 4A). Compound 1 (AG18051) and its analog 14b were screened for toxic effects in the SH-SY5Y cell lines.
HupA at 10 μM concentration provided 74% protection from Aβ-induced toxicity. […] Again, synthesized compound 14b at 1 μM, afforded greater protection than HupA at 10 μM concentration.

[3] = cited from earlier work
Aβ-ABAD PPI = biological target: T1, Aβ-ABAD PPI (Homo sapiens, UniProt Q99714); assay: Estradiol ELISA assay: rescue of Aβ-induced reduction of estradiol levels in SH-SY5Y cells; format: cell-based
T1 construct: wildtype human SH-SY5Y cell lines, which are known to express ABAD; endogenous in cells; host or cells: SH-SY5Y
T1 sequence (Q99714 2-261 limits assumed): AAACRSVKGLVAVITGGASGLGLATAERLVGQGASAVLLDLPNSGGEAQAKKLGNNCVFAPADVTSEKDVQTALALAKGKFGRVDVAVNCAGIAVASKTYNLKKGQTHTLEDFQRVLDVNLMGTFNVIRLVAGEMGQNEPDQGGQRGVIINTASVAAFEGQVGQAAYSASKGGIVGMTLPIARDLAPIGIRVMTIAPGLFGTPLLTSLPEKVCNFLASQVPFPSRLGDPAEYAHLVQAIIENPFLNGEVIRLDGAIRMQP
Protocol: as §1, §2
Estradiol ELISA assay. SH-SY5Y cells were treated with compounds (24 hours), followed by Aβ (72 hours) in a similar fashion to that employed in the cell viability assays, the cell culture medium was collected, and cells were lysed using RIPA buffer and protease inhibitor cocktail, then proteins were quantified via BCA assay. An estradiol assay was performed. In brief, the plate was loaded with samples, along with the estradiol tracer and the specific antiserum to estradiol and incubated for one hour at room temperature. After five washing steps, Ellman's Reagent was added, and the plate developed for 60 minutes with gentle shaking at room temperature. The calculated estradiol concentration was normalized to the total protein content of the samples.
Statistical Analyses. The IC50 values of each compound were acquired from a single experiment with each inhibitor concentration run in triplicate and the statistical significance was calculated using the Student t test, or a one-way or two-way ANOVA. A P value of <0.05 was considered statistically significant. IC50 values were calculated.
To determine the effect of Aβ on estradiol production, and ABAD's role in this process, wildtype human SH-SY5Y cell lines, which are known to express ABAD, were incubated for 72 hours with Aβ.^20 Estradiol levels in the cell lysate were measured with a commercial ELISA-based estradiol assay. […] To determine if AG18051 treatment affects Aβ-induced reduction of estradiol levels, 0.1 or 1 μM AG18051 was preincubated in SH-SY5Y cells for 24 hours prior to Aβ exposure. […] AG18051 at 1 μM protected SH-SY5Y cells from Aβ-induced reduction of estradiol production to a greater significance than HupA. This confirms literature reports that AG18051 is neuroprotective and that it exerts this effect by ameliorating Aβ-induced reduction of estradiol production by ABAD.^20, 23
This assay methodology allows direct screening of compound activity in the presence of Aβ and provides direct evidence of the ability of compounds to rescue Aβ-induced reduction of estradiol production by ABAD. To measure the effect of AG18051 alone in SH-SY5Y cell lines, a 0.01-100 μM dose-response range was tested, and their effect on estradiol levels (FIG. 2B). […] To evaluate the effect of the increase of AG18051 dose in maintaining estradiol levels reduced by Aβ, AG18051 was tested in increasing concentrations in the presence of Aβ (FIG. 2B).

ABAD [4] = biological target: T2, ABAD (Homo sapiens, UniProt Q99714); assay: Estradiol levels in SH-SY5Y cells treated with the substance alone; format: cell-based; set-up: To measure the effect of AG18051 alone in SH-SY5Y cell lines; endogenous in cells; host or cells: SH-SY5Y
T2 sequence (Q99714 1-261): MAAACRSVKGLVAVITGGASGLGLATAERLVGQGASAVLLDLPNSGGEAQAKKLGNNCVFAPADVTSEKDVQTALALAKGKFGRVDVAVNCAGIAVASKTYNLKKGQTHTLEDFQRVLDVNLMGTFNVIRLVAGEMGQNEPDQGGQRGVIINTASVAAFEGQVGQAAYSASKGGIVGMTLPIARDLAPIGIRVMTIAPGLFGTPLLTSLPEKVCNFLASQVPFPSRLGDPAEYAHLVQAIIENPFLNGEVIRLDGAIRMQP
Protocol: Estradiol ELISA assay. […] An estradiol assay was performed. In brief, the plate was loaded with samples, along with the estradiol tracer and the specific antiserum to estradiol and incubated for one hour at room temperature. After five washing steps, Ellman's Reagent was added, and the plate developed for 60 minutes with gentle shaking at room temperature. The calculated estradiol concentration was normalized to the total protein content of the samples.

SH-SY5Y cells [5] = assay: Aβ-induced toxicity in SH-SY5Y cells, lactate dehydrogenase (LDH) release assay; format: cell-based, human; details: 1 μM, pretreated 24 hrs, then 25 μM Aβ 48 hrs
Protocol: as §1, §2
Cell Viability Assays. […] Cell viability was measured after 48 hours using commercial MTS assay or lactate dehydrogenase (LDH) cytotoxicity assay. […]

SH-SY5Y cells [6] = assay: Cell viability of SH-SY5Y cells with compound alone; format: cell-based, human; details: up to 100 μM
Protocol: as §1
as §3, with “assay. […]” for “assay.”

ABAD [7] = biological target: T2, ABAD; details: at 10 μM concentration; cited from earlier work

| IC50 (Aβ-ABAD PPI; compounds 24 hours then Aβ 72 hours, amelioration of Aβ-induced reduction of estradiol levels, read-out: IC50 (estradiol assay)) | decrease in estradiol levels compared to control (ABAD [4]; compound alone at 100 μM) | SMILES | basal respiration: restored share of the cell respiration reduced by Aβ (SH-SY5Y cells [1]; 1 μM pretreatment 24 hrs, then 25 μM Aβ 48 hrs) | proton leak, ATP production and maximal respiration: restoration of mitochondrial function lost by Aβ (SH-SY5Y cells [1]; 1 μM pretreatment) | protection of cell viability (MTS assay) (SH-SY5Y cells [2]; 1 μM) | solubility [3] | estradiol levels in the presence of Aβ (Aβ-ABAD PPI; preincubated 24 hours prior to Aβ exposure, compared to Aβ-only control, listed as AG18051) | effect on estradiol levels, compound alone (ABAD [4]; 0.01-100 μM dose-response range) | LDH release compared with Aβ treatment alone (SH-SY5Y cells [5]) | toxicity to reduce cell viability (SH-SY5Y cells [6]) | basal respiration: restored respiration levels (SH-SY5Y cells [1]; 10 μM pretreatment 24 hrs, then 25 μM Aβ 48 hrs) | proton leak, ATP production and maximal respiration: restoration of mitochondrial function lost by Aβ (SH-SY5Y cells [1]; 10 μM pretreatment) | protection from Aβ-induced toxicity (MTS assay) (SH-SY5Y cells [2]; 10 μM) | ABAD inhibition activity (ABAD [7]) |
| --- | --- | --- | --- | --- | --- | --- | --- | --- | --- | --- | --- | --- | --- | --- |
| 1220 nM and 1200 nM | 20% | O=C(C(c1ccccc1)n1cnc2[nH]ncc2c1=S)N1CCCCCC1 (centres unmarked) [Compound 1, 1-(azepan-1-yl)-2-phenyl-2-(4-thioxo-1,4-dihydro-5H-pyrazolo[3,4-d]pyrimidin-5-yl)ethan-1-one, reference compound] | 37% | trend to restore | 79% | poor solubility | significantly maintained estradiol levels; also recorded: dose-dependent increase in estradiol levels | no significant reduction in estradiol levels | significantly reducing LDH release | no toxicity |  |  |  |  |
|  |  | C/C=C1\[C@H]2C=C(C)C[C@]1(N)c1ccc(=O)[nH]c1C2 [Huperzine A] |  |  |  |  |  |  |  |  | 46% | trend to restore | 74% | possess ABAD inhibition activity |
